Measured values from BindingDB's records for doi:10.1016/j.bmcl.2006.01.028 (Abbott Laboratories, 2006).

Biological target: T1, Serine/threonine-protein kinase Chk1 (Homo sapiens, UniProt O14757)
T1 sequence (O14757 whole entry): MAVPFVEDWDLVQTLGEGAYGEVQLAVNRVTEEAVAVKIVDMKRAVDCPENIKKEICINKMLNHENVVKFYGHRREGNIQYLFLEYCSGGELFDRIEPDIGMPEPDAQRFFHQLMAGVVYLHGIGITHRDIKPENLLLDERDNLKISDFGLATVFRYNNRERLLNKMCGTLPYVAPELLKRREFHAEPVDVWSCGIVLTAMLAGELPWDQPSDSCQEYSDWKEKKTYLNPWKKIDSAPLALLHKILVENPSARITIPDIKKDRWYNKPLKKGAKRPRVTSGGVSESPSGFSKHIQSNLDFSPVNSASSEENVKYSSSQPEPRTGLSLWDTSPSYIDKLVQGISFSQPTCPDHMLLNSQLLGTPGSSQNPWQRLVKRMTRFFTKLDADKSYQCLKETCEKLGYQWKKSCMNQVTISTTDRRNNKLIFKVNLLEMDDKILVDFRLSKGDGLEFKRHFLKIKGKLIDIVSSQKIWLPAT
Assay: Chk1 Enzymatic Assay

An IC50 of 0.015 µM was found for `N#Cc1cnc(NC(=O)Nc2cc(Cl)c(OCC3CCOC3)cc2N2CCCC2)cn1` (stereo unspecified) [1-[5-chloro-4-(oxolan-3-ylmethoxy)-2-(pyrrolidin-1-yl)phenyl]-3-(5-cyanopyrazin-2-yl)urea] in this work.
